From ChEMBL document CHEMBL5385954, “Pepticinnamins N, O, and P, Nonribosomal Peptides from the Soil-Derived Streptomyces mirabilis P8-A2” (J Nat Prod, 2024) come the findings set out here.

The subject of assay [1] is LNCaP C4-2B. As to the kind of experiment: Cytotoxicity against human LNCaP C4-2B cells assessed as inhibition of cell growth incubated for 72 hrs by CellTox Green cytotoxicity assay. It is filed as functional, cell-based.
The test system of assay [2] is LNCaP. Description: Cytotoxicity against drug resistant human LNCaP cells assessed as inhibition of cell growth incubated for 72 hrs by CellTox Green cytotoxicity assay. It is filed as functional, cell-based.
The test system of another assay is Candida albicans. As to the kind of experiment: Antimicrobial activity against Candida albicans IBT 656 incubated for 24 hrs by broth dilution method. It is filed as functional. (In general: In broth dilution the organism is exposed to a series of concentrations in liquid medium.)
For assay [3], the system named is LNCaP C4-2B. As to the kind of experiment: Cytotoxicity against drug resistant human LNCaP C4-2B cells assessed as inhibition of cell growth incubated for 72 hrs by CellTox Green cytotoxicity assay. It is filed as functional, cell-based.
A further assay deals with Pseudomonas aeruginosa. Description: Antimicrobial activity against Pseudomonas aeruginosa PAO1 incubated for 12 hrs by agar diffusion method. It is filed as functional. (Agar diffusion results depend on both activity and mobility in agar.)
In assay [4] the test system is LNCaP. As to the kind of experiment: Cytotoxicity against human LNCaP cells assessed as inhibition of cell growth incubated for 72 hrs by CellTox Green cytotoxicity assay. It is filed as functional, cell-based.
The subject of the next assay is Staphylococcus aureus. As to the kind of experiment: Antimicrobial activity against Staphylococcus aureus 8325 incubated for 12 hrs by agar diffusion method. It is filed as functional.
Another assay concerns Bacillus subtilis. As to the kind of experiment: Antimicrobial activity against Bacillus subtilis incubated for 12 hrs by agar diffusion method. It is filed as functional.

A value given as a limit tells only on which side of the number the result lay.

For orientation: IC50 means the concentration at which inhibition is half-maximal. Broadly, the MIC is the least concentration at which growth counts as inhibited. High values mean a less susceptible organism, low ones a more susceptible organism. On to `CCC/C=C\c1ccccc1/C=C/C(=O)N[C@H](Cc1ccc(O)cc1)C(=O)N(C)[C@@H](Cc1ccc(OC)c(O)c1)C(=O)N(C)[C@@H](Cc1ccccc1)C(=O)OC[C@H]1NC(=O)CNC1=O`, for which the IC50 in the assay on LNCaP C4-2B [1], in the assay on LNCaP [2], in the assay with LNCaP C4-2B [3] and in the assay on LNCaP [4] was above 10 µM each time. In addition, the MIC in the assay on Candida albicans, with Pseudomonas aeruginosa, in the assay on Staphylococcus aureus and against Bacillus subtilis was above 50 µg/mL in each case.
For `CCC/C=C\c1ccccc1/C=C/C(=O)N[C@H](Cc1ccc(O)cc1)C(=O)N(C)[C@@H](Cc1ccc(OC)c(O)c1)C(=O)N(C)[C@@H](Cc1ccccc1)C(=O)O`, the MIC in the assay on Candida albicans, in the assay with Pseudomonas aeruginosa, in the assay on Staphylococcus aureus and against Bacillus subtilis was above 50 µg/mL throughout.
`CCC/C=C\c1ccccc1/C=C/C(=O)N[C@H](Cc1ccc(O)cc1)C(=O)N(C)[C@@H](Cc1ccc(OC)c(O)c1Cl)C(=O)N(C)[C@@H](Cc1ccccc1)C(=O)OC[C@H]1NC(=O)CNC1=O`: the IC50 in the assay on LNCaP C4-2B [1], with LNCaP [2], in the assay with LNCaP C4-2B [3] and in the assay on LNCaP [4] was above 10 µM in each case. Also, the MIC against Candida albicans, against Pseudomonas aeruginosa, against Staphylococcus aureus and in the assay on Bacillus subtilis was above 50 µg/mL each time.
Turning to `CCC/C=C\c1ccccc1/C=C/C(=O)N[C@H](Cc1ccc(O)cc1)C(=O)N(C)[C@@H](Cc1ccc(OC)c(O)c1Cl)C(=O)N(C)[C@@H](Cc1ccccc1)C(=O)O`, the IC50 in the assay with LNCaP C4-2B [1], with LNCaP [2], in the assay on LNCaP C4-2B [3] and in the assay with LNCaP [4] was above 10 µM in each case. The MIC in the assay on Candida albicans, in the assay on Pseudomonas aeruginosa, against Staphylococcus aureus and with Bacillus subtilis was above 50 µg/mL each time.
